This assay deals with T1, cell-surface VLA-4 (α4β1 integrin) on Ramos cells binding to immobilized VCAM-1 (Homo sapiens, UniProt P05556+P13612).
T1 construct: Ramos cells bearing cell-surface VLA-4; endogenous in cells; host or cells: Ramos cells (VLA-4); VCAM-1 purified from CHO cell culture media
The experiment in a line: Ramos (VLA-4)/VCAM-1 Cell-Based Screening Assay (cell adhesion). Conditions: for inhibition at 0.01 µM: Conc. 10 nM, Ramos cell adhesion to VCAM-1; for IC50: Calcein-AM labeled Ramos cells, VCAM-1 coated plates, 45 min at room temperature. From the text: Calcein-AM was purchased from Molecular Probes Inc.
VLA-4 (α4β1 integrin) antagonist activity, defined as ability to compete with cell-surface VLA-4 for binding to immobilized VCAM-1, was quantitated using a Ramos-VCAM-1 cell adhesion assay. Ramos cells bearing cell-surface VLA-4, were labeled with a fluorescent dye (Calcein-AM) and allowed to bind VCAM-1 in the presence or absence of test compounds.
Initially, this entailed coating 96 well plates (Nunc Maxisorp) with recombinant human VCAM-1 (100 ng in 100 μl PBS), sealing each plate and allowing the plates to stand at 4° C for Å18 hr. The VCAM-coated plates were subsequently washed twice with 0.05% Tween-20 in PBS, and then blocked for 1hr (room temperature) with 200 μl of Blocking Buffer (1% BSA/0.02% thimerosal) to reduce non-specific binding. Following the incubation with Blocking Buffer, plates were inverted, blotted and the remaining buffer aspirated. Each plate was then washed with 300 μl PBS, inverted and the remaining PBS aspirated.
Test compounds were dissolved in 100% DMSO and then diluted 1:25 in VCAM Cell Adhesion Assay Buffer (4 mM CaCl2, 4 mM MgCl2 in 50 mM TRIS-HCl, pH 7.5) (final DMSO=4%). […] 100 μl/well of each dilution was added to the VCAM-coated plates, followed by 100 μl of Ramos cells (200,000 cells/well in 1% BSA/PBS). […] Plates were inverted to remove non-adherent cells, blotted and 300 μl/well PBS added. Plates were again inverted, blotted and the remaining buffer gently aspirated. 100 μl Lysis Buffer (0.1% SDS in 50 mM TRIS-HCl, pH 8.5) was added to each well and agitated for 2 min on a rotary shaking platform.

Where [1] appears, read: read-out: IC50 in Ramos Cell Based Assay.
The mark [2] stands for this setting: IC50 in Ramos Cell Based Assay (nM).

Each structure is given as a SMILES string. Like-named read-outs stand apart in the source and are kept apart here.

T1 sequence (P13612 34-1032): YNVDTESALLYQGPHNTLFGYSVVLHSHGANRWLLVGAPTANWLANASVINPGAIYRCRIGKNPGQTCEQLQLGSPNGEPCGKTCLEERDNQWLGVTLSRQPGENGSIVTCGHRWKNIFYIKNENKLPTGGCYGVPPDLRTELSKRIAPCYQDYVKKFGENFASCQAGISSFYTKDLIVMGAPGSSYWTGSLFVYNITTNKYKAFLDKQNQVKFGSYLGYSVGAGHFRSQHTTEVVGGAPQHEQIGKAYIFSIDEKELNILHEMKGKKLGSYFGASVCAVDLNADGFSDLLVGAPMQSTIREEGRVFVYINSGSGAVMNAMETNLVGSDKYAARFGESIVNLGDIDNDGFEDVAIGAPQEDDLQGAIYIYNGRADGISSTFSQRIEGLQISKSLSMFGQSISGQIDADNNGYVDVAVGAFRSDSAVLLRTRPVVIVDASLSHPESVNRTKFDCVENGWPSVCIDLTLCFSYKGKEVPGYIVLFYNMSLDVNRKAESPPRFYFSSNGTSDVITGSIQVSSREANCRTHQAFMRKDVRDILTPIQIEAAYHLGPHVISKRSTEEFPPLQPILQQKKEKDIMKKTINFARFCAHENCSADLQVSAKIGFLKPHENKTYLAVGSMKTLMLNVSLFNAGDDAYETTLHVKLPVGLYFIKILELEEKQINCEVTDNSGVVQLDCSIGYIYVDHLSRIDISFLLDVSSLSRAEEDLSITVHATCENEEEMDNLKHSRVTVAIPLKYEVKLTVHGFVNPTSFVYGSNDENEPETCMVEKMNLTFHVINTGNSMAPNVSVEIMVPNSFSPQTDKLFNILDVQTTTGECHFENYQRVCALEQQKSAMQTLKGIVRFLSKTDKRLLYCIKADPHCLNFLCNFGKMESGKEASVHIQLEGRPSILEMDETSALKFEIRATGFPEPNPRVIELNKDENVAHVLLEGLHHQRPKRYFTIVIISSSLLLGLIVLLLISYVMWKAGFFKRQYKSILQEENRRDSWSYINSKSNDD
T1 sequence (P05556 21-798): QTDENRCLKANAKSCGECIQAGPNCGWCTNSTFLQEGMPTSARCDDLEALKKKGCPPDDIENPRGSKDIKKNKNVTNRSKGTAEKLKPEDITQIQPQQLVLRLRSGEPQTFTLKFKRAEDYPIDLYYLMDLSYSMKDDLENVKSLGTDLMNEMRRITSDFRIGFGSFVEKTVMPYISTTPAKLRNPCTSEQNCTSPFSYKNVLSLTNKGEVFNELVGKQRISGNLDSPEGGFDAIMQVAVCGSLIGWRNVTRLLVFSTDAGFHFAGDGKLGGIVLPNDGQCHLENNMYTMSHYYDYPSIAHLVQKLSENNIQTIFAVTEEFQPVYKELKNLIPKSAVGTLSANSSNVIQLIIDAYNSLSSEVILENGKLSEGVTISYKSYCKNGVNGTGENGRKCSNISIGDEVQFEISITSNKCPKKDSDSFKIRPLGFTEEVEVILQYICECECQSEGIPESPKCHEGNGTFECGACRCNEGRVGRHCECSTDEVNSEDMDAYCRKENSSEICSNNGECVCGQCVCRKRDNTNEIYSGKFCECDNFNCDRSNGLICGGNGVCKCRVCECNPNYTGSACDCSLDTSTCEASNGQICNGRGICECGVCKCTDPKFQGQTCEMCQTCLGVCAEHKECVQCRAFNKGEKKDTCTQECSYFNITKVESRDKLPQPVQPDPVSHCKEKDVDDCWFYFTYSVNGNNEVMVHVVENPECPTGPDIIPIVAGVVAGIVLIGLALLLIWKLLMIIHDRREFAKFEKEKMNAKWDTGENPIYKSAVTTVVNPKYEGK

Take `COc1ccc(CC2C(=O)N(c3ccc(CC(NC(=O)C4(CCNC(C)=O)CCCC4)C(=O)O)cc3)C(c3ccc(Cl)cc3)N2C(=O)COc2ccccc2)cc1` (single isomer, unassigned) [Example 291]: 0.01 µM produced 48% inhibition.

Take `CCCC(=O)N1C(c2ccccc2)N(c2ccc(C[C@H](NC(=O)C3(CCNC(C)=O)CCCC3)C(=O)O)cc2)C(=O)[C@H]1Cc1ccc(OC)cc1` (single isomer, unassigned) [Example 280]: under setting [1], the IC50 is 4.2 nM.

`CC(=O)NCCC1(C(=O)N[C@@H](Cc2ccc(N3C(=O)[C@@H](Cc4ccccc4)N(C(C)=O)C3c3ccccc3)cc2)C(=O)O)CCCC1` (single isomer, unassigned) [Example 311]: under setting [1], the IC50 was 3 nM.

On to `[N-]=[N+]=NCCCCC1(C(=O)N[C@@H](Cc2ccc(NC(=O)c3c(Cl)cccc3Cl)cc2)C(=O)O)CCCC1` [Example 261], for which the IC50 under setting [1] was 184 nM.

In the case of `COC(=O)NC(=O)NCCC1(C(=O)N[C@@H](Cc2ccc(NC(=O)c3c(Cl)cccc3Cl)cc2)C(=O)O)CCCC1` [Example 189], the IC50 under setting [1] is 130 nM.

On to `CS(=O)(=O)CCCCC1(C(=O)N[C@@H](Cc2ccc(NC(=O)c3c(Cl)cccc3Cl)cc2)C(=O)O)CCCC1` [Example 263], for which the IC50 under setting [1] was 5 nM.

With `CC(C)(C)C(=O)NCCC1(C(=O)N[C@@H](Cc2ccc(NC(=O)c3c(Cl)cccc3Cl)cc2)C(=O)O)CCCC1` [Example 156, 4-[[(2,6-dichlorophenyl)carbonyl]amino]-N-[[1-[2-[[N-(1,1-dimethylethyl)carbonyl]amino]ethyl]cyclopentyl]carbonyl]-L-phenylalanine], the IC50 under setting [2] is 28 nM.

Turning to `CCCC(=O)N1C(c2ccccc2)N(c2ccc(C[C@H](NC(=O)C3(CCNC(C)=O)CCCC3)C(=O)O)cc2)C(=O)[C@H]1C` (single isomer, unassigned) [Example 344], under setting [1], the IC50 is 19 nM.

Turning to `COc1ccc(C[C@@H]2C(=O)N(c3ccc(C[C@H](NC(=O)C4(CCNC(C)=O)CCCC4)C(=O)O)cc3)C(c3ccccc3)N2C(=O)COc2ccccc2)cc1` (single isomer, unassigned) [Example 284], the IC50 under setting [1] was 2.9 nM.

With `NC(=O)NCCC1(C(=O)N[C@@H](Cc2ccc(NC(=O)c3c(Cl)cccc3Cl)cc2)C(=O)O)CCCC1` [Example 188], the IC50 under setting [2] is 36 nM.

Regarding `CCCC(=O)N1C(c2ccc(Cl)cc2)N(c2ccc(C[C@H](NC(=O)C3(CCNC(C)=O)CCCC3)C(=O)O)cc2)C(=O)[C@H]1Cc1ccccc1` (single isomer, unassigned) [Example 322], under setting [1], the IC50 was 5 nM.

In the case of `CC(=O)NCCC1(C(=O)NC(Cc2ccc(N3C(=O)C(C)N(C(C)=O)C3c3ccccc3)cc2)C(=O)O)CCCC1` (single isomer, unassigned) [Example 342], the inhibition at 0.01 µM was 24%.

The molecule `CCCC(=O)N1C(Cc2cccnc2)C(=O)N(c2ccc(CC(NC(=O)C3(CCNC(C)=O)CCCC3)C(=O)O)cc2)C1c1ccc(Cl)cc1` (stereo not shown) [Example 304] had an inhibition at 0.01 µM of 35%.

With `CC(=O)NCCCC1(C(=O)N[C@@H](Cc2ccc(NC(=O)c3c(Cl)cccc3Cl)cc2)C(=O)O)CCCC1` [Example 276, N-[[1-(3-(Acetylamino)propyl]cyclopenyl]carbonyl]-4-[[(2,6-dichlorophenyl)carbonyl]amino]-L-phenylalanine], the IC50 under setting [1] was 22 nM.

Consider `CCCC(=O)N1C(Cc2ccccc2)C(=O)N(c2ccc(CC(NC(=O)C3(CCNC(C)=O)CCCC3)C(=O)O)cc2)C1c1ccc(Cl)cc1` (single isomer, unassigned) [Example 321], for which at 0.01 µM the inhibition was 59%.

Consider `CCCC(=O)N1C(Cc2ccccc2)C(=O)N(c2ccc(CC(NC(=O)C3(CCNC(C)=O)CCCC3)C(=O)O)cc2)C1c1ccccc1` (single isomer, unassigned) [Example 313], for which the inhibition at 0.01 µM amounted to 68%.

On to `CCCC(=O)N1C(Cc2cccnc2)C(=O)N(c2ccc(CC(NC(=O)C3(CCNC(C)=O)CCCC3)C(=O)O)cc2)C1c1ccccc1` (stereo not shown) [Example 300], for which 0.01 µM produced 32% inhibition.

Regarding `COc1ccc(C[C@@H]2C(=O)N(c3ccc(C[C@H](NC(=O)C4(CCNC(C)=O)CCCC4)C(=O)O)cc3)C(CCc3ccccc3)N2C(C)=O)cc1` (single isomer, unassigned) [Example 293], the IC50 under setting [1] is 40 nM.

With `COc1ccc(C[C@@H]2C(=O)N(c3ccc(C[C@H](NC(=O)C4(CCNC(C)=O)CCCC4)C(=O)O)cc3)C(c3ccccc3)N2C(C)=O)cc1` (single isomer, unassigned) [Example 278], the IC50 under setting [1] was 2 nM.

Regarding `CC(=O)NCCC1(C(=O)NC(Cc2ccc(N3C(=O)C(C)N(C(=O)COc4ccccc4)C3c3ccccc3)cc2)C(=O)O)CCCC1` (single isomer, unassigned) [Example 349], the inhibition at 0.01 µM is 58%.

Take `CSCCCCC1(C(=O)N[C@@H](Cc2ccc(NC(=O)c3c(Cl)cccc3Cl)cc2)C(=O)O)CCCC1` [Example 260]: the IC50 is, setting by setting: under setting [1], 130 nM; under setting [2], 94 nM.

Turning to `N#CCCCCC1(C(=O)N[C@@H](Cc2ccc(NC(=O)c3c(Cl)cccc3Cl)cc2)C(=O)O)CCCC1` [Example 262], under setting [2], the IC50 was 39 nM.

Take `CCCC(=O)N1C(Cc2ccc(OC)cc2)C(=O)N(c2ccc(CC(NC(=O)C3(CCNC(C)=O)CCCC3)C(=O)O)cc2)C1c1ccc(Cl)cc1` (single isomer, unassigned) [Example 288]: at 0.01 µM the inhibition was 92%.

`CC(=O)NCCC1(C(=O)NC(Cc2ccc(N3C(=O)C(Cc4cccnc4)N(C(C)=O)C3c3ccc(Cl)cc3)cc2)C(=O)O)CCCC1` (stereo not shown) [Example 303] came in with an inhibition at 0.01 µM of 70%.

In the case of `CC(=O)NCCC1(C(=O)NC(Cc2ccc(N3C(=O)C(Cc4ccccc4)N(C(C)=O)C3c3ccc(Cl)cc3)cc2)C(=O)O)CCCC1` (single isomer, unassigned) [Example 319], the inhibition at 0.01 µM is 68%.

Turning to `O=C(NCCC1(C(=O)N[C@@H](Cc2ccc(NC(=O)c3c(Cl)cccc3Cl)cc2)C(=O)O)CCCC1)Nc1ccccc1[N+](=O)[O-]` [Example 190], the IC50 under setting [1] is 650 nM.

`COc1ccc(C[C@@H]2C(=O)N(c3ccc(C[C@H](NC(=O)C4(CCNC(C)=O)CCCC4)C(=O)O)cc3)C(c3ccc(Cl)cc3)N2C(C)=O)cc1` (single isomer, unassigned) [Example 286]: the IC50 under setting [1] was 24 nM.

For the molecule `O=C(NCCC1(C(=O)N[C@@H](Cc2ccc(NC(=O)c3c(Cl)cccc3Cl)cc2)C(=O)O)CCCC1)NCc1ccccc1` [Example 191], the IC50 under setting [1] was 322 nM.

Turning to `CCCC(=O)N1C(c2ccc(Cl)cc2)N(c2ccc(C[C@H](NC(=O)C3(CCNC(C)=O)CCCC3)C(=O)O)cc2)C(=O)[C@H]1C` (single isomer, unassigned) [Example 351], the IC50 under setting [1] was 13 nM.

For the molecule `COCCC1(C(=O)N[C@@H](Cc2ccc(NC(=O)c3c(Cl)cccc3Cl)cc2)C(=O)O)CCCC1` [Example 59], the IC50 under setting [1] is 13.5 nM.

For `CC(=O)NCCC1(C(=O)NC(Cc2ccc(N3C(=O)C(Cc4ccccc4)N(C(=O)COc4ccccc4)C3c3ccccc3)cc2)C(=O)O)CCCC1` (single isomer, unassigned) [Example 317], the inhibition at 0.01 µM is 17%.

As for `CC(=O)NCCC1(C(=O)N[C@@H](Cc2ccc(N3C(=O)[C@@H](C)N(C(C)=O)C3c3ccc(Cl)cc3)cc2)C(=O)O)CCCC1` (mixture of isomers) [Example 350], the IC50 under setting [1] is 13 nM.

On to `CC(=O)NCCC1(C(=O)N[C@@H](Cc2ccc(N3C(=O)[C@@H](Cc4cccnc4)N(C(C)=O)C3c3ccccc3)cc2)C(=O)O)CCCC1` (single isomer, unassigned) [Example 299], for which the IC50 under setting [1] is 1.7 nM.

As usually defined, the inhibition is the drop in the measured response relative to a control, in per cent. High values mean strong suppression, low ones little suppression. Usually IC50 stands for the concentration that inhibits the measured activity by half.

The values are drawn from patent publication US6455550B1, “N-alkanoylphenylalanine derivatives” (Hoffmann-La Roche Inc., priority 1997, dated 2002).
